{"source": "patent US20050182020A1", "about": "“Ceramide de novo synthesis-based therapeutic and prophylactic methods, and related articles of manufacture” (priority 2003, published 2005)", "key": {"[1]": {"tested_on": "SRE-mediated gene transcription", "assay": "SRE-promoter luciferase reporter gene assay in stably transfected CHO cells", "assay_type": "cell-based, Chinese hamster", "details": "for SRE-mediated gene transcription (luciferase RLU/protein): myriocin 1 μM, cycloserine 500 mM, fumonisin B1 10 μM, PPMP 20 μM, NB-DNJ 40 μM, cholesterol/25-OH cholesterol 10/1 μg/ml, vs 1% BSA", "experimental": "FIG. 3. Inhibition of ceramide synthesis and SRE-mediated gene transcription. (A) Decreased ceramide synthesis correlates with decreased levels of SRE-mediated gene transcription and mSREBP. […] After cell lysis, luciferase activity was analyzed, and expressed as a ratio of protein content. Data represent the average (±S.D.) of at least 4 different experiments, each performed in triplicate. […] CHO cells stably transfected with an SRE-promoter construct linked to the luciferase reporter gene were incubated for 8 h in the presence of control conditions (1% BSA) or increasing levels of myriocin (0.25-1 μM). After cell lysis, luciferase activity was analyzed, expressed as a ratio of protein content. Data represent the average (±S.D.) of at least 3 different experiments, each performed in triplicate.\nFIG. 4. Increased ceramide synthesis and SRE-mediated gene transcription. (A) Increased ceramide de novo synthesis correlates with increased SRE-mediated gene transcription. On day 1, CHO cells stably transfected with an SRE-promoter construct linked to the luciferase reporter gene were plated at 80% confluency. […] Cells were harvested, lysed and analyzed for luciferase activity (measured in relative light units, RLU) and protein content. Data are expressed as percentage of control and represent the average (±S.D.) of three different experiments, each performed in triplicate. Inset: Western blot analysis: On day 1, CHO cells were plated in regular growth medium. On day 2, cells were incubated for 8 h with control medium (1% BSA) or DMS (5 μM). Whole cell extracts (30 μg protein) were loaded on a 4-14% continuous gradient SDS-PAGE gel. P and M denote the precursor (125 kd) and mature (68 kd) form of SREBP-1 in a representative experiment. (B) DMS increases ceramide de novo synthesis. CHO cells were treated for 3.5 h either with control conditions (1% BSA) or DMS (2.5-5 μM). […] Data are expressed as dpm/protein and represent a typical experiment.\n(§1) FIG. 5. LY-B cells fail to recover SRE-mediated gene transcription in cholesterol depletion but recover SRE-mediated gene transcription in the presence of DMS. […] Both cell lines have been transfected to stably express an SRE-promoter construct linked to the luciferase reporter gene. On day 2, cells were incubated for 16 h with 1% BSA (control) or in the presence of cholesterol (10 μg/ml) and 25-OH cholesterol (1 μg/ml) to decrease SRE-mediated gene transcription. Then, incubation medium was switched to 1% BSA or DMS (5 μM) for 6 h. After cell lysis, luciferase activity was analyzed, expressed as a ratio of protein content. Data represent the average (±S.D.) of at least 4 different experiments, each performed in triplicate.\nCell culture and stable transfections: Cells were grown in F12-nutrient mixture medium containing 10% fetal bovine serum (FBS), 1% glutamine (v/v), 1% penicillin/streptomycin (v/v), and 10% fetal bovine serum (v/v) at 37° C. in humidified CO2 (5%). To obtain stable transfectants, cells were plated in 12-well plates at 50% confluency and transfected for 5 h in the presence of serum-free Dulbecco's modified Eagle's medium (DMEM) with pSyn SRE (1 μg/well) and pWLNeo (0.25 μg/well) using Lipofectamin (1.5 μl/well). Cells were then incubated for 2 days in growth medium. On day three, neomycin-containing medium (400 μg/ml) was added. Selection for neomycin resistant colonies was continued for three weeks. Pooled clones were analyzed for luciferase expression. Experiments were performed with pooled clones as well as with cells derived from a single clone. Cells were grown in the presence of 400 μg/ml neomycin. For experimental use, cells were plated in the absence of neomycin at least 24 h ahead in regular growth medium.\nEnzyme assays: Cells to be analyzed for luciferase activity were lyzed in lysis buffer A containing 0.1% Triton X-100, 50 mM Hepes, 10 mM MgSO4, pH 7.7. Cells were scraped, collected, vortexed and briefly centrifuged to pellet cell debris. […]"}, "[2]": {"tested_on": "Niemann Pick Disease Type A fibroblasts", "assay": "Ceramide de novo synthesis (3H-serine) in NPA fibroblasts", "assay_type": "cell-based", "details": "overnight incubation with agent, vs 1% BSA", "experimental": "FIG. 19. Ceramide synthesis is increased in NPA fibroblasts. Fibroblasts from different control individuals and from two different cell lines derived from Niemann Pick Disease Type A were incubated for 4 h in the presence of ^3H-serine to measure de novo ceramide synthesis after having been incubated overnight in either control medium (1% BSA) or in the presence of cholesterol or C8-Ceramide. Lipid extraction and separation were carried out."}, "[3]": {"tested_on": "SRE-mediated gene transcription", "assay": "SRE-mediated gene transcription, Part II inhibitors of sphingolipid synthesis and DAG generation", "assay_type": "cell-based", "parameters": "SRE-mediated gene transcription inhibited to: unit of the concentration uncertain", "experimental": "Reduction of de novo sphingolipid synthesis: Incubation with methylthiodihydroceramide (10 μM) for 6 h reduces SRE-mediated gene transcription to 40%. Methylthiodihydroceramide was received from Gerhild van Echten-Deckert (1). Reduction of de novo sphingolipid biosynthesis by 1-methylthiodihydroceramide is due to its ability to deplete cells of newly formed free sphinganine.\nInhibition of sphingomyelin synthesis: The D609 compound is a xanthate and inhibitor of sphingomyelin synthase. It is a mixture of several isoforms (2). Experiments were carried out with five defined isomers of D609 received via Gemma Fabrias (Dept. of Biological Organic Chemistry, Barcelona, Spain) (Table 1). […] A concentration curve of 10, 20 and 40 μg/ml was tested over 5 h.\nData: Propanolol ([…]) inhibits SRE-mediated gene transcription to 40% (+3%) within 30 min. Resvaratrol ([…]) inhibits SRE-mediated gene transcription to 7% (±16%) within 4 h."}, "[4]": {"tested_on": "HMG-CoA synthase mRNA", "details": "previously shown (ref. 10); cited from earlier work"}, "[5]": {"tested_on": "SREBP-1", "assay": "Western blot analysis of precursor and mature SREBP-1 in CHO cells", "assay_type": "cell-based, Chinese hamster", "details": "C6-ceramide 20 μM, 4 h and 8 h, vs controls", "experimental": "FIG. 2. C6-ceramide increases pSREBP levels. On day 1, CHO cells were plated in regular growth medium. On day 2, cells were incubated for 4 and 8 h with 1% BSA (control) or in the presence of C6-ceramide (20 μM). Whole cell extracts (30 μg protein) were loaded on a 4-14% continuous gradient SDS-PAGE gel. P denotes the precursor (125 kd) form of SREBP-1 in a representative experiment. C6 ceramide increases the precursor form of SREBP-1 and decreases the mature form of SREBP-1. […] The blot is representative of experiments carried out with ceramide analogues of different chain length. Densitometric results were obtained by analyzing pixels/inch (corrected for actin) and expressed relative to control.\nFIG. 4. Increased ceramide synthesis and SRE-mediated gene transcription. (A) Increased ceramide de novo synthesis correlates with increased SRE-mediated gene transcription. […] Cells were harvested, lysed and analyzed for luciferase activity (measured in relative light units, RLU) and protein content. Data are expressed as percentage of control and represent the average (±S.D.) of three different experiments, each performed in triplicate. […] Data are expressed as dpm/protein and represent a typical experiment.\nWestern blot analysis: Cells were plated on day one in regular growth medium. […] Densitometric quantification was carried out using Scion Image beta 4.02 software (www.scioncorp.com). […]"}, "[6]": {"tested_on": "HSN1 cells (4561)", "assay": "Cholesterol / cholesterylester synthesis from 3H-mevalonate in HSN1 cells", "assay_type": "cell-based, human", "details": "16 h, 3H-mevalonate", "experimental": "FIG. 12. Increased free cholesterol synthesis in HSN cells. In order to investigate whether increased SRE-mediated gene transcription also results in increased cholesterol synthesis cells were incubated with radioactive mevalonate, a precursor which represents a committed step in cholesterol synthesis (see FIG. 11). Control and HSN1 cells were incubated for 7 h and 18 h in the presence of trace amounts of ^3H-mevalonate. Lipids were extracted and separated by thin […] chromatography (TLC). Radioactive counts in the cholesterol fraction were analyzed by liquid scintillation counting.\nFIG. 14. Oleic acid increases HSN 4561 synthesis of high levels of free cholesterol but not cholesteryl ester. Cells were incubated for 4 h with ^3H-mevalonate and grown in the presence or absence of 0.3 mM oleic acid.\nFIG. 16. Incubation with mevastatin decreases free cholesterol synthesis in HSN cells as well as in controls. Cells were treated for 16 h in the presence of ^3H-mevalonate to assess cholesterol de novo synthesis and several inhibitors of either cholesterol or ceramide synthesis (Mevastatin=Statin), C6 ceramide (previously shown by us to decreased SREBP levels and SRE-mediated gene transcription), cycloserine (inhibitor of serine-palmiltoyl transferase), cholesterol (classical inhibitor of de novo synthesis by negative feedback)."}, "[7]": {"tested_on": "SRE-mediated gene transcription", "assay": "SRE-promoter luciferase reporter gene assay in LY-B cells (CHO cells mutated in LCB1 subunit of serine-palmitoyl transferase)", "assay_type": "cell-based, Chinese hamster", "details": "preliminary data", "experimental": "as §1\nEnzyme assays: Cells to be analyzed for luciferase activity were lyzed in lysis buffer A containing 0.1% Triton X-100, 50 mM Hepes, 10 mM MgSO4, pH 7.7. Cells were scraped, collected, vortexed and briefly centrifuged to pellet cell debris. An aliquot was used to measure luciferase activities in a luminometer (Berthold LB 9501, Wallac Inc., Gaithersburg, Md.) with a luciferin reagent from Promega (Madison, Wis.). Luciferase activity in relative light units (RLU) was divided by protein content (mg/ml) for each extract. […]"}}, "data": [{"molecule": "CCCCCCCCCCCCC/C=C/[C@@H](O)[C@@H](N)CO", "note": "[Sphingosine]", "values": [{"measurement": "increase of SRE-mediated gene transcription", "setting": "[1]; sphingosine 1.5 μM, 8 h", "value": "up to two-fold"}]}, {"molecule": "CCCCCCCCCCCCC/C=C/[C@@H](O)[C@H](CO)NC(=O)CCCCCCC", "note": "[C8-ceramide, D-erythro N-octanoylsphingosine]", "values": [{"measurement": "ceramide de novo synthesis (3H-serine, 4 h)", "setting": "[2]", "value": "significantly decreases"}]}, {"molecule": "1-methylthiodihydroceramide", "values": [{"measurement": "SRE-mediated gene transcription reduced to", "setting": "[3]; 10 μM, 6 h", "value": 40, "unit": "%"}]}, {"molecule": "CCCCCCCCCCCCCCCC(=O)NC(CN1CCOCC1)C(O)c1ccccc1.Cl", "note": "(racemic) [PPMP, DL-threo-1-Phenyl-2-palmitoylamino-3-morpholino-1-propanol HCL]", "values": [{"measurement": "SRE-mediated gene transcription (luciferase RLU/protein)", "setting": "[1]; 8 h", "value": "significantly reduce"}]}, {"molecule": "CCCCN1C[C@H](O)[C@@H](O)[C@H](O)[C@H]1CO.Cl", "note": "[NB-DNJ, N-Butyldeoxynojirimycin-HCL]", "values": [{"measurement": "SRE-mediated gene transcription (luciferase RLU/protein)", "setting": "[1]; 8 h", "value": "does not affect"}]}, {"molecule": "AG10", "values": [{"measurement": "Reduction of SRE-mediated gene transcription(40 μg/ml)", "setting": "[3]; 40 μg/ml, 5 h", "value": "52% (±11%)"}]}, {"molecule": "Oc1ccc(C=Cc2cc(O)cc(O)c2)cc1", "note": "[Resvaratrol, resveratrol]", "values": [{"measurement": "SRE-mediated gene transcription inhibited to", "setting": "[3]; 300 (unit uncertain), within 4 h", "value": "7% (±16%)"}]}, {"molecule": "N[C@@H]1CON=C1O", "note": "[cycloserine]", "values": [{"measurement": "SRE-mediated gene transcription (luciferase RLU/protein)", "setting": "[1]; 8 h", "value": "significantly reduced"}]}, {"molecule": "CC(C)NCC(O)COc1cccc2ccccc12", "note": "(stereo not shown) [Propanolol]", "values": [{"measurement": "SRE-mediated gene transcription inhibited to", "setting": "[3]; 250 (unit uncertain), within 30 min", "value": "40% (+3%)"}]}, {"molecule": "CCCCCCCCCCCCCC(=O)N[C@H](C)[C@@H](O)c1ccccc1", "note": "[D-MAPP, (1S,2R)-D-erythro-2-(N-Myristoylamino)-1-phenyl-1-propanol]", "values": [{"measurement": "mRNA levels of HMG-CoA synthase", "setting": "[4]", "value": "decrease"}]}, {"molecule": "D-erythro hexanoylsphingosine [C6-ceramide]", "values": [{"measurement": "cellular levels of pSREBP", "setting": "[5]", "value": "increased"}, {"measurement": "levels of mSREBP", "setting": "[5]", "value": "decreased"}, {"measurement": "sensitivity of cholesterol de novo synthesis in HSN1 cells (4561) relative to control cells", "setting": "[6]", "value": "more sensitive"}]}, {"molecule": "ceramide", "values": [{"measurement": "SRE-mediated gene transcription on addition of ceramide", "setting": "[1]; under the experimental conditions of FIG. 3, data not shown", "value": "did not increase"}, {"measurement": "SRE-mediated gene transcription in LYB-cells incubated with ceramide", "setting": "[7]", "value": "did not decrease"}, {"measurement": "mRNA levels of HMG-CoA synthase", "setting": "[4]", "value": "decrease"}]}]}
